Experimental data reported in US8785211B2 (priority 2005, dated 2014).

Target: wild type α-HL single channel (Staphylococcus aureus, UniProt P09616)
Assay type: binding

wild type α-HL single channel, sequence (P09616 27-319 limits assumed): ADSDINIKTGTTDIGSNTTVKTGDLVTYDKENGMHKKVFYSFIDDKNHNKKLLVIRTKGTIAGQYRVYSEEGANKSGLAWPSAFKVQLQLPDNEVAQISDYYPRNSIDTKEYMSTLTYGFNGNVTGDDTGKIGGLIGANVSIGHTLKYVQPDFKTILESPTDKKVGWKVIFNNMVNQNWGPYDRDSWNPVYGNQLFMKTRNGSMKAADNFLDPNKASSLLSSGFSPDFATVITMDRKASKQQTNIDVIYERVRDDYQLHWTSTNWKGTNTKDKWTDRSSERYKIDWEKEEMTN

## heptakis-6-amino-β-cyclodextrin [am7-βCD]
  Cyclodextrin binding to wild type pore: led to cyclodextrin binding events
